Data on one molecule can be found in paper PMC8586708, “SC75741, A Novel c-Abl Inhibitor, Promotes the Clearance of TDP25 Aggregates via ATG5-Dependent Autophagy Pathway” (Frontiers in Pharmacology, 2021).

In this assay the target is T1, c-Abl (Homo sapiens, UniProt P00519).
T1 construct: gene ABL1
The assay can be described thus: in vitro kinase assay, dose-response. It counts as biochemical.

T1 sequence (P00519 whole entry): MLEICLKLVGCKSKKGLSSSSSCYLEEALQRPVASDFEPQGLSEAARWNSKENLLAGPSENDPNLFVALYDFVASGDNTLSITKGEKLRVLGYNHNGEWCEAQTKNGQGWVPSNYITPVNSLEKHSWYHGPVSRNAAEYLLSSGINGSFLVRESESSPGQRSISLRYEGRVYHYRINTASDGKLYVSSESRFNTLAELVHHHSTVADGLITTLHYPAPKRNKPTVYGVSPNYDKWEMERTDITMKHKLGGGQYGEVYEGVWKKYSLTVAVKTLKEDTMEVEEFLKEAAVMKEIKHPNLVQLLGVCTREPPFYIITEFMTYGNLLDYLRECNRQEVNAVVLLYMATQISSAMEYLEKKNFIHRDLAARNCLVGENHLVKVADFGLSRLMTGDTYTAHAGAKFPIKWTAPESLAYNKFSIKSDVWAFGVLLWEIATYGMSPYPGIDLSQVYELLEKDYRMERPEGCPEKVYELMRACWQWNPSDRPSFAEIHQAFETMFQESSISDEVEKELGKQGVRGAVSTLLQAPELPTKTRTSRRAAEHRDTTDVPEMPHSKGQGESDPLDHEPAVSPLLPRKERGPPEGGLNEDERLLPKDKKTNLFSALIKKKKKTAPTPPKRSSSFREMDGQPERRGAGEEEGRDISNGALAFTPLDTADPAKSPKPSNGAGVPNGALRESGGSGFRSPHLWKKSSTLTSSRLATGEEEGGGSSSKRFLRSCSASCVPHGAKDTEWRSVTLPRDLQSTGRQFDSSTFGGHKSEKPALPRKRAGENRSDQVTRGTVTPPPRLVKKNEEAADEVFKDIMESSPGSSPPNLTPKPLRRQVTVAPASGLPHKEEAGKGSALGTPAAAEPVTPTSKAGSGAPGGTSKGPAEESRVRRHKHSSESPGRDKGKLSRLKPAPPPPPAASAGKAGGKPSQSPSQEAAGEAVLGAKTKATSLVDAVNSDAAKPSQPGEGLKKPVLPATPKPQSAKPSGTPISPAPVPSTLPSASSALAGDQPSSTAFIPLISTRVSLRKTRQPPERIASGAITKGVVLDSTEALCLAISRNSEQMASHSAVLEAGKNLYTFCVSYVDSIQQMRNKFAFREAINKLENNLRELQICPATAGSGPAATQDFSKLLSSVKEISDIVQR

Take `O=C(c1ccccc1)c1ccc2nc(NC(=O)c3csc(C4CCN(c5ncnc6ccsc56)CC4)n3)[nH]c2c1` [SC75741]: the IC50 (as a rule, the midpoint of a concentration-inhibition curve) came out at 263 nM.
